Assay: in vitro
Details: human, hela cells, % viability

Structure (SMILES)	viability at 28.5 h, 10 µM [%]
FC(F)(F)c1ccc(-c2c[nH]c([C@@H]3COCCN3Cc3csnn3)n2)cc1 [CBK289318]	92.2
O=c1cc(-c2ccc(Br)cc2)nc2[nH]ccn12 [CBK016446]	81
Cc1cc(NO)nc(-c2ccc(Br)cc2)n1 [CBK261713]	97.6
COc1nc(N)nc2c1ncn2C1OC(CO)C(O)C1O (stereo not drawn) [CBK201271]	91.6
O=C(c1ccccc1)N1CCC(c2nnc(-c3ccsc3)o2)CC1 [CBK283371]	88.5
Brc1cccc(-c2cn3ccnc3c(NC3CCOCC3)n2)c1 [CBK066291]	101
CN(Cc1nc2c(s1)CCCC2)C(=O)COc1ccc2nncn2n1 [CBK306758]	98.9
Cc1ccc(C(=O)NCC2COc3ccccc3O2)c(N2CCOCC2)n1 (stereo not drawn) [CBK076519]	106
O=C1NC[C@]2(CC[C@@H](C(=O)NC3CC3)CC2)Oc2ccc(Cl)cc21 [CBK284889]	94.2
O=c1oc(-c2ccncc2)nn1Cc1ccccc1F [CBK283692]	89.1
CCCNC(=O)Cn1nc(C)n2c(cc3sccc32)c1=O [CBK284020]	102
CC(=O)NC(c1nccs1)C1CCCN(CC2CCCCC2)C1 (stereo not drawn) [CBK285152]	95.1
CCC(Sc1nc(O)cc(-c2ccccc2)n1)C(=O)O (stereo not drawn) [CBK287135]	87.8
Fc1ccccc1-c1nc2cnccn2c1NCc1ccco1 [CBK283681]	84.9
O=C(c1cccc(NS(=O)(=O)Cc2ccccc2)c1)N1CCOCC1 [CBK038991]	91
Nc1c(-c2cccc(C(F)(F)F)c2)cnc2cccnc12 [CBK081187]	88.7
CN1CCCN(c2nccnc2-c2cccc(O)c2)CC1 [CBK088820]	112
O=[N+]([O-])c1ccc(S(=O)(=O)Nc2nnc(Cc3ccc(Cl)cc3)s2)cc1 [CBK200046]	93.2
Fc1ccc(CN(Cc2ccsc2)[C@@H]2COC[C@H]2c2ccc(F)cc2)cc1 [CBK286486]	92.8
Cc1ccccc1N1C(=O)c2ccc(C(=O)OCC(=O)c3ccc(Cl)c([N+](=O)[O-])c3)cc2C1=O [CBK264108]	91.3
COc1cccc(CN2CCCC[C@H]3CN(C(C)=O)C[C@H]32)c1 [CBK285510]	107
CCCCSc1nnc(-c2cc3c(C(F)(F)F)nn(C)c3s2)n1C [CBK019526]	97.5
CN1CCN(c2nc(-c3ccco3)cn3ccnc23)CC1 [CBK038045]	83.7

Structure (SMILES)	viability at 28.5 h, 10 µM [%]
OC(COc1cccc(Oc2ccccc2)c1)CN1CCN(c2ccccc2F)CC1 (stereo not drawn) [CBK267468]	95.5
CCN(C(=O)c1cnc2n(c1=O)CCS2)c1ccccc1 [CBK287384]	103
COc1ccc([C@@]23CC[C@@H](NC(=O)c4ccc(F)c(F)c4)C[C@@H]2CN(C)C3)cc1OC [CBK083504T]	90.2
COc1ccc(C(=O)N[C@@H]2CC[C@@]3(c4ccc(OC)c(OC)c4)CCN(C)[C@H]3C2)c(OC)c1 [CBK074247T]	91.7
O=C(O)c1ccc(CN2CCOC[C@H]2c2nc(-c3ccc(F)cc3)c[nH]2)cc1 [CBK289304]	91.2
Cc1ccccc1-n1ccn(S(=O)(=O)C(C)C)c1=O [CBK106566]	89.7
Cn1nccc1NS(=O)(=O)c1cc(C(F)(F)F)cc(C(F)(F)F)c1 [CBK062090]	92.6
COc1ccc(-c2nnc(SC(C)C(=O)Nc3cc(C)no3)n2CC2CCCO2)cc1 (stereo not drawn) [CBK297879]	84.8
Nc1ncc(-c2cccc(/C=C/C(=O)O)c2)nc1NCc1ccco1 [CBK063691]	98.7
Cc1ccc(C)c(C2CCCN2C(=O)Cn2cc(C(=O)NCc3ccccc3)ccc2=O)c1 (stereo not drawn) [CBK286052]	112
FC(F)(F)c1cc(-c2cc(N3CCN(c4ccccn4)CC3)ncn2)cc(C(F)(F)F)c1 [CBK091082]	94.5
COc1ccc(NC2=C(NCCO)C(=O)c3ccccc3C2=O)cc1 [CBK264756]	102
CC(C)(C)OC(=O)N1CCC(NCCc2ccccn2)C1 (stereo not drawn) [CBK304839]	94.2
O=C(c1ccoc1)N1CCC2(CCCN(Cc3cc(=O)[nH]c(=O)[nH]3)C2)C1 (stereo not drawn) [CBK132823]	97.8
CCCN(CCc1ccc(C(F)(F)F)cc1)C1Cc2cc(OC)c(OC)cc2C1 [CBK017829C]	103
O=C(CN1CCC(C(=O)c2ccc(F)cc2)CC1)Nc1ncccn1 [CBK149131]	95.7
Cc1nnc(NC(=O)C2CCN(C(=O)c3cccc(F)c3)CC2)s1 [CBK307588]	93.2
Cc1ccc2c(NC(=O)c3cc4c([nH]c3=O)CCC4)c(C)ccc2n1 [CBK281568]	93
Cn1c(=O)c2c(nc(N3CCOCC3)n2CC/N=C2/CCCCCN2)n(C)c1=O [CBK267708C]	85.7
CCC1CN(c2cc(CO)c(F)cn2)CC2(CCOC2)O1 (stereo not drawn) [CBK304757]	92.9
O=C(Nc1ccc(S(=O)(=O)Nc2ncccn2)cc1)c1cc([N+](=O)[O-])ccc1Cl [CBK263717]	89.9
CC(=O)N1CCC(C(=O)NC(=O)Nc2cccc(C)c2)CC1 [CBK034854]	94.3

Source: PMC12040169 (PLOS Biology, 2025)
